The values that follow come from US20100261753A1, “METHODS FOR PREVENTING AND/OR TREATING DEGENERATIVE DISORDERS OF THE CENTRAL NERVOUS SYSTEM” (AMICUS THERAPEUTICS, INC., priority 2009, published 2010).

The target in series [1] is T1, lysosomal GCase (Homo sapiens, UniProt P04062).
T1 construct: lysosomal GCase activity was assayed in situ using fibroblasts established from a normal subject; endogenous in cells; host or cells: fibroblasts established from a normal subject
T1 sequence (P04062 40-536): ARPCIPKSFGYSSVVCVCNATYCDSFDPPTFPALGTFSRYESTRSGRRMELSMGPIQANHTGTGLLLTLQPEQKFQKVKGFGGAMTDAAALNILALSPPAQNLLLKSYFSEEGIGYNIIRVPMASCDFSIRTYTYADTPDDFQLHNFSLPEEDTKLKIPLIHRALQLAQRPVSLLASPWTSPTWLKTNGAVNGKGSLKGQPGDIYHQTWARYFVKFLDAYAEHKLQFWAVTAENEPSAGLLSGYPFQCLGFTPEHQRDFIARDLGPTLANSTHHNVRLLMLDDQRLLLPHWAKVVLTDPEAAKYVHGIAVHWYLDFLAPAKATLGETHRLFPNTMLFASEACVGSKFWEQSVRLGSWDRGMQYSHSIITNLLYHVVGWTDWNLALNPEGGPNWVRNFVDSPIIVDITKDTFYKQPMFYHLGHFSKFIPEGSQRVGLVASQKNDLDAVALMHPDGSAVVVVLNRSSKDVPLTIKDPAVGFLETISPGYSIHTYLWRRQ
As to the kind of experiment: In situ lysosomal GCase inhibition and washout assay in fibroblasts from a normal subject. The class given is cell-based. The conditions noted are these: for IC50: normal fibroblasts, 16-24 h incubation, PFBFDβGlu substrate; for In Situ Washout: washout time after treatment at IC90, single exponential fit. On the procedure: For the dose-response assays, cells were incubated with the in situ substrate 5-(pentafluorobenzoylamino)fluorescein di-β-D-glucopyranoside (PFBFDβGlu) for 1 hour and subsequently lysed to determine the extent of substrate hydrolysis in the presence of compound. […] Inhibition was determined as the ratio of activity in the presence of compound to that in the absence of compound. […] Cells were washed extensively and incubated in drug-free medium to allow net compound efflux from cells. Cells were then tested for lysosomal GCase activity at 2 hour intervals over a total period of 8 hours following compound removal. The increase in activity over time was fitted with a single exponential function to determine the compound's washout time.

For series [2], the target named is T2, GCase (Homo sapiens, UniProt P04062).
T2 sequence (P04062 40-536): T1 sequence (P04062 40-536)
Description: GCase activity enhancement (EC50, Emax; Table 2B). In kind it is cell-based.

A short description of series [3]: Blood brain barrier penetration after a single p.o. dose in mice. The class given is in vivo, mice (C57BL/6). The conditions noted are these: single 30 mg/kg (free base equivalent) p.o. As to the method: For this purpose, 8-week old wild-type male mice (C57BL/6) were administered a single 30 mg/kg (free base equivalent) p.o. dose of reference or test compound by gavage (n=3 mice per time point). Dosing solutions were prepared in water. After dosing, mice were euthanized with CO2 at the following time points: 0-, 0.5-, 1-, and 4-hour post-dose. […] Similarly, brains were collected from each mouse. Plasma was derived by spinning whole blood at 2700 g for 10 minutes at 4° C. followed by storage on dry ice. Whole brains were washed in cold PBS to remove contaminating blood, blotted dry, flash frozen on dry ice, and ultimately stored at −80° C. until analysis. To prepare brain samples for analysis, 50-100 mg of tissue was homogenized in […]. Samples were then clarified by centrifugation. Next, 25 μl of the brain homogenate supernatant or 25 μl of plasma were combined with 25 μl of acetonitrile:water (95/5). […] Between 20 and 30 μl sample was injected for analysis. […] When Compound B was analyzed, Compound A was used as internal standard (150.1/130.1). For calculating drug concentrations, raw data for plasma (ng/mL) and brain (ng/g) was converted to nM using the molecular weight of respective compounds and assuming 1 g of tissue is equivalent to 1 mL volume. Concentration as a function of time was plotted in GraphPad Prism version 4.02.

Series [4] addresses T3, GCase (Mus musculus, UniProt P17439).
T3 construct: Liver, spleen, lung, and brain tissues were removed; from tissue; host or cells: brain, spleen, liver and lung of wild-type C57BL/6 mice
T3 sequence (P17439 20-515): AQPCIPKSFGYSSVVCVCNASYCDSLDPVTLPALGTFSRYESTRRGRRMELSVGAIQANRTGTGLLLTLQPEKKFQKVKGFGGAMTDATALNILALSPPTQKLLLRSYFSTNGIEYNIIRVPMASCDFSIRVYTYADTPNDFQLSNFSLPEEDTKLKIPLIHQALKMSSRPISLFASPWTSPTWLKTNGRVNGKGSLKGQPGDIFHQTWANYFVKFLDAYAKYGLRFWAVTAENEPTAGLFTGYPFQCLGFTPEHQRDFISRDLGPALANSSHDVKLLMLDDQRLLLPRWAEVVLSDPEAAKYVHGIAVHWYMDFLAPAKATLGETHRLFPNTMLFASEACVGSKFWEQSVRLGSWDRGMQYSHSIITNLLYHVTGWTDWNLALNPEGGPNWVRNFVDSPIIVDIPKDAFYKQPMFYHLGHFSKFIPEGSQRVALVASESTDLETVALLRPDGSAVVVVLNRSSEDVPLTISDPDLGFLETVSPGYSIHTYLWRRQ
Description: GCase enhancement in tissues of mice after 2-week oral dosing. In kind it is in vivo, mice (C57BL/6). To be noted: for GCase Increase (-fold): nine doses over 2 weeks; for GCase enhancement in brain, spleen, liver and lung: compared to mice administered control or IFG-tartrate. On the procedure:
The ability of orally administered test compounds (the hydrochloride salt form of Compound A and Compound B) to elevate GCase levels as compared to reference compound, IFG-tartrate, was assessed in mice. […] Seven animals were used per dose. The dosing solutions were prepared in water. Compounds were administered over 2 weeks as follows: week 1, Mon-Fri (On), Sat-Sun (Off); week 2, Mon-Thu (On); necropsy on Friday. Thus, a total of 9 doses (dosing solutions prepared fresh every day) were given to each mouse, with a 24-hour washout between the last dose and necropsy.
Plasma was collected by spinning blood at 2700 g for 10 minutes at 4° C. Liver, spleen, lung, and brain tissues were removed, washed in cold PBS, blotted dry, flash frozen on dry ice, and stored at −80° C. until analysis. GCase levels were measured by homogenizing approximately 50 mg tissue in 500 μl McIlvane (MI) buffer (100 mM sodium citrate, 200 mM sodium phosphate dibasic, 0.25% sodium taurocholate, and 0.1% Triton X-100, pH 5.2) at pH 5.2 for 3-5 seconds on ice with a micro homogenizer. Homogenates were then incubated at room temperature without and with 2.5 mM conduritol-B-epoxide (CBE) for 30 min. Finally, 3.7 mM 4-methylumbeliferryl-β-glucoside (4-MUG) substrate was added and incubated at 37° C. for 60 min. Reactions were stopped by addition of 0.4 M glycine, pH 10.6. Fluorescence was measured on a plate reader for 1 sec/well using 355 nm excitation and 460 nm emission. Total protein was determined in lysates using the MicroBCA kit according to the manufacturer's instructions. A 4-methylumbelliferone (4-MU) standard curve ranging from 1.0 nM to 50 μM was run in parallel for conversion of raw fluorescence data to absolute GCase activity (in the presence and absence of CBE) and expressed as nanomoles of 4-MU released per milligram of protein per hour (nmol/mg protein/hr). GCase levels and protein levels were calculated using Microsoft Excel (Redmond, Wash.) and GraphPad Prism version 4.02.

The structures appear in SMILES notation. Where a name gives a salt, the structure may show the parent alone.

With `O[C@@H]1[C@@H](CCl)CNC[C@H]1O` [Compound B, (3R,4R,5S)-5-(chloromethyl)piperidine-3,4-diol], in series [1], it took 121 ± 7 nM to reach half-maximal inhibition (IC50) and the “In Situ Washout” value is 2.9 ± 0.22 h. In addition, in series [2], the EC50 amounted to 9.6 ± 1 nM, the Emax came out at 104 ± 3.4%, the “effect on GCase activity” value was “concentration-dependent increase in GCase activity” and the “enhancement of enzyme activity compared to IFG-tartrate” value is on record as “enhanced enzyme activity to the same maximum level at much lower concentration”. Besides, in series [3] (compared to hydrochloride salt form of Compound A), the brain levels result is “even higher levels of Compound B were detected in brain”. In addition, the “GCase Increase (-fold)” value in series [4] (brain, 10 mg/kg p.o., Table 4A) is recorded as 1.3 -fold. Further, the “GCase Increase (-fold)” value in series [4] (brain, 100 mg/kg p.o., Table 4A) is given as 3.5 -fold. In series [4], the “GCase enhancement in brain, spleen, liver and lung” value was “statistically significant greater GCase enhancement”. For the same molecule, the “GCase Increase (-fold)” value in series [4] (spleen, 10 mg/kg p.o., Table 4B) is 1.4 -fold. Also, the “GCase Increase (-fold)” value in series [4] (spleen, 100 mg/kg p.o., Table 4B) is recorded as 2.2 -fold.

For the molecule `O[C@@H]1CNCC(CF)[C@H]1O` (stereo in doubt) [Compound A, (3R,4R,5R)-5-(fluoromethyl)piperidine-3,4-diol], the “blood brain barrier crossing” value in series [3] (compared to IFG) is “crossed the blood brain barrier more readily as compared to IFG”.

In the case of `O[C@@H]1CNCC(CF)[C@H]1O` (stereo in doubt) [Compound A-HCl, (3R,4R,5R)-5-(fluoromethyl)piperidine-3,4-diol hydrochloride], in series [1], the IC50 amounted to 17 ± 8 nM and the “In Situ Washout” value was 6.6 ± 0.12 h. Besides, in series [2], the “effect on GCase activity” value is listed as “concentration-dependent increase in GCase activity” and the “enhancement of enzyme activity compared to IFG-tartrate” value was “enhanced enzyme activity to the same maximum level at much lower concentration”. Also, in series [4], the “GCase enhancement in brain, spleen, liver and lung” value is reported as “statistically significant greater GCase enhancement”.
